The results in this text go back to US20090156646A1, “PYRIDYLPHENOL COMPOUND AND USE THEREOF” (TAKEDA PHARMACEUTICAL COMPANY LIMITED, priority 2005, published 2009).

A value given as a limit tells only on which side of the number the result lay.

Data set [1] has as its target T1, human metastin receptor hOT7T175 (Homo sapiens, UniProt Q969F8, L364H).
T1 construct: encoding the entire length of human metastin receptor hOT7T175; expressed in transfected cells; host or cells: CHO/dhFr- cells (ATCC #CRL-9096) stably transfected with pAKKO-hOT7T175; clone h175-16 was used as whole cells for FLIPR
The data set is described as follows: binding inhibiting activity: 125I-metastin (40-54) binding to cell membrane fraction of h175 KB34 cells. As to conditions: room temperature 60 minutes, read-out: binding inhibiting activity, represented by the IC50 value. The procedure, abridged:
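The assay buffer (pH 7.4 Tris with magnesium acetate, EGTA and a protease-inhibitor cocktail) was used either plain or supplemented with 1 mg/ml BSA. The radioligand was 125I-labelled human metastin (40-54). The receptor source was a 250-fold diluted membrane fraction of the stable CHO/dhfr− line h175 KB34.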

T1 sequence (Q969F8 whole entry L364H): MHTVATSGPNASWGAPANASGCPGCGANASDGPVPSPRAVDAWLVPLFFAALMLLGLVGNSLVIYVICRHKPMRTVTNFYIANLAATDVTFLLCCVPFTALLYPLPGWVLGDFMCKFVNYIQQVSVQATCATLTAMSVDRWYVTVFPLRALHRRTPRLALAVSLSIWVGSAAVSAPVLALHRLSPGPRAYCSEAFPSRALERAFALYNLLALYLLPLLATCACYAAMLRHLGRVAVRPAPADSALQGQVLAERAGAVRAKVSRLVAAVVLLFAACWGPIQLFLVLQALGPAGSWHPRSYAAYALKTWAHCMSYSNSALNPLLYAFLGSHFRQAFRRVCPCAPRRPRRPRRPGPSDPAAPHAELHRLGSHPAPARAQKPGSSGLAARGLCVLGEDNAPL

`Cl.N#Cc1c(-c2cccc(NC(=O)[C@H]3CCCN3)c2)cc(-c2ccc(Cl)cc2O)nc1NC(=O)c1nccs1` [Example 294, N-(3-{6-(4-chloro-2-hydroxyphenyl)-3-cyano-2-[(1,3-thiazol-2-ylcarbonyl)amino]pyridin-4-yl}phenyl)-D-prolinamide hydrochloride] displayed a melting point of 222 to 228 °C. The IC50 in data set [1] was not above 10 µM.
In the same order, the values of `Cl.N#Cc1c(-c2cccc(C(=O)NCCCn3ccnc3)c2)cc(-c2ccc(F)cc2O)nc1NC(=O)c1cccs1` [Example 78, N-{3-cyano-6-(4-fluoro-2-hydroxyphenyl)-4-[3-({[3-(1H-imidazole-1-yl)propyl]amino}carbonyl)phenyl]pyridin-2-yl}thiophene-2-carboxamide hydrochloride] are 195 to 196 °C and not above 10 µM.
In the same order, the values of `Cl.N#Cc1c(-c2cccc(NC(=O)[C@H]3CCCC[C@H]3N)c2)cc(-c2ccc(F)cc2O)nc1NC(=O)c1ccco1` [Example 283, N-{4-[3-({[(1S,2R)-2-aminocyclohexyl]carbonyl}amino)phenyl]-3-cyano-6-(4-fluoro-2-hydroxyphenyl)pyridin-2-yl}-2-furamide hydrochloride] are 237 to 239 °C and not above 10 µM.
In the same order, the values of `COc1ccccc1C(=O)Nc1nc(-c2ccc(Cl)cc2O)cc(-c2cccc(C(=O)NCCCn3ccnc3)c2)c1C#N.Cl` [Example 70, N-{6-(4-chloro-2-hydroxyphenyl)-3-cyano-4-[3-({[3-(1H-imidazole-1-yl)propyl]amino}carbonyl)phenyl]pyridin-2-yl}-2-methoxybenzamide hydrochloride] are 234 to 237 °C and not above 10 µM.
For the molecule `CC(C)(CN)CNC(=O)c1cccc(-c2cc(-c3ccc(F)cc3O)nc(NC(=O)c3cccs3)c2C#N)c1.Cl` [Example 80, N-[4-(3-{[(3-amino-2,2-dimethylpropyl)amino]carbonyl}phenyl)-3-cyano-6-(4-fluoro-2-hydroxyphenyl)pyridin-2-yl]thiophene-2-carboxamide hydrochloride], the melting point fell in the range of 265 to 268 °C. Also, the IC50 in data set [1] was not above 10 µM.
Consider `C[C@@H](N)CC(=O)Nc1cccc(-c2cc(-c3ccc(Cl)cc3O)nc(NC(=O)c3nccs3)c2C#N)c1.Cl` [Example 270, N-[4-(3-{[(3R)-3-aminobutanoyl]amino}phenyl)-6-(4-chloro-2-hydroxyphenyl)-3-cyanopyridin-2-yl]-1,3-thiazole-2-carboxamide hydrochloride], for which the melting point is 218 to 221 °C. Further, in data set [1], the IC50 is not above 10 µM.
Molecule `COc1ccccc1C(=O)Nc1nc(-c2ccc(F)cc2O)cc(-c2cccc(NC(=O)CCN)c2)c1C#N.Cl` [Example 247, N-[4-[3-(β-alanylamino)phenyl]-3-cyano-6-(4-fluoro-2-hydroxyphenyl)pyridin-2-yl]-2-methoxybenzamide hydrochloride] yielded a melting point of 232 to 233 °C. The IC50 in data set [1] is not above 10 µM.
With `Cc1ccc(C(=O)Nc2nc(-c3ccc(Cl)cc3O)cc(-c3cccc(NC(=O)CC(C)N)c3)c2C#N)o1.Cl` (stereo not drawn) [Example 271, N-[4-{3-[(3-aminobutanoyl)amino]phenyl}-6-(4-chloro-2-hydroxyphenyl)-3-cyanopyridin-2-yl]-5-methyl-2-furamide hydrochloride], the melting point lay within 206 to 212 °C. For the same molecule, in data set [1], the IC50 was not above 10 µM.
Molecule `COC[C@H](N)C(=O)Nc1cccc(-c2cc(-c3ccc(F)cc3O)nc(NC(=O)c3ccco3)c2C#N)c1.Cl` [Example 301, N-(3-cyano-6-(4-fluoro-2-hydroxyphenyl)-4-{3-[(O-methyl-L-seryl)amino]phenyl}pyridin-2-yl)-2-furamide hydrochloride] returned a melting point of 224 to 230 °C. Moreover, the IC50 in data set [1] is not above 10 µM.
Taken in the same sequence, the figures for `Cl.N#Cc1c(-c2cccc(C(=O)NCCN)c2)cc(-c2ccc(Cl)cc2O)nc1NC(=O)c1nccs1` [Example 249, N-[4-(3-{[(2-aminoethyl)amino]carbonyl}phenyl)-6-(4-chloro-2-hydroxyphenyl)-3-cyanopyridin-2-yl]-1,3-thiazole-2-carboxamide hydrochloride] were 242 to 244 °C and not above 10 µM.
For the molecule `CCNC(C)CC(=O)Nc1cccc(-c2cc(-c3ccc(F)cc3O)nc(NC(=O)c3ccco3)c2C#N)c1.Cl` (stereo not drawn) [Example 320, N-[3-cyano-4-(3-{[3-(ethylamino)butanoyl]amino}phenyl)-6-(4-fluoro-2-hydroxyphenyl)pyridin-2-yl]-2-furamide hydrochloride], the melting point lay within 249 to 255 °C. For the same molecule, the IC50 in data set [1] was not above 10 µM.
Taken in the same sequence, the figures for `CCCC(CC(=O)Nc1cccc(-c2cc(-c3ccc(F)cc3O)nc(NC(=O)c3ccco3)c2C#N)c1)N(C)C.Cl` (stereo not drawn) [Example 285, N-[3-cyano-4-(3-{[3-(dimethylamino)hexanoyl]amino}phenyl)-6-(4-fluoro-2-hydroxyphenyl)pyridin-2-yl]-2-furamide hydrochloride] were 180 to 182 °C and not above 10 µM.
In the same order, the values of `Cl.N#Cc1c(-c2cccc(NC(=O)[C@H]3CCCN3)c2)cc(-c2ccc(F)cc2O)nc1NC(=O)c1ccno1` [Example 293, N-(3-{3-cyano-6-(4-fluoro-2-hydroxyphenyl)-2-[(isoxazol-5-ylcarbonyl)amino]pyridin-4-yl}phenyl)-D-prolinamide hydrochloride] are ≥ 250 °C (dec.) and not above 10 µM.
Taken in the same sequence, the figures for `Cl.N#Cc1c(-c2cccc(C(=O)NCCN)c2)cc(-c2ccc(Cl)cc2O)nc1NC(=O)c1ccco1` [Example 86, N-[4-(3-{[(2-aminoethyl)amino]carbonyl}phenyl)-6-(4-chloro-2-hydroxyphenyl)-3-cyanopyridin-2-yl]-2-furamide hydrochloride] were 252 to 255 °C and not above 10 µM.
With `CCC(CC(=O)Nc1cccc(-c2cc(-c3ccc(F)cc3O)nc(NC(=O)c3ccco3)c2C#N)c1)N(CC)CC.Cl` (stereo not drawn) [Example 319, N-[3-cyano-4-(3-{[3-(diethylamino)pentanoyl]amino}phenyl)-6-(4-fluoro-2-hydroxyphenyl)pyridin-2-yl]-2-furamide hydrochloride], the melting point is 171 to 175 °C. In addition, in data set [1], the IC50 was not above 10 µM.
Consider `CCN(CC)CCC(=O)Nc1cccc(-c2cc(-c3ccc(F)cc3O)nc(NC(=O)c3ccco3)c2C#N)c1.Cl` [Example 328, N-[3-cyano-4-{3-[(N,N-diethyl-β-alanyl)amino]phenyl}-6-(4-fluoro-2-hydroxyphenyl)pyridin-2-yl]-2-furamide hydrochloride], for which the melting point lay within 209 to 213 °C. Besides, the IC50 in data set [1] was not above 10 µM.
Turning to `Cl.N#Cc1c(-c2cccc(C(=O)NC3CCNCC3)c2)cc(-c2ccccc2O)nc1NC(=O)c1cccs1` [Example 7, N-(3-cyano-6-(2-hydroxyphenyl)-4-{3-[(piperidin-4-ylamino)carbonyl]phenyl}pyridin-2-yl)thiophene-2-carboxamide hydrochloride], the melting point lay in the range of 254 to 256 °C. Also, the IC50 in data set [1] is not above 10 µM.
Taken in the same sequence, the figures for `Cl.N#Cc1c(-c2cccc(C(=O)NCC3CCCCN3)c2)cc(-c2ccc(Cl)cc2O)nc1NC(=O)c1ccco1` (stereo not drawn) [Example 84, N-[6-(4-chloro-2-hydroxyphenyl)-3-cyano-4-(3-{[(piperidin-2-ylmethyl)amino]carbonyl}phenyl)pyridin-2-yl]-2-furamide hydrochloride] were 222 to 226 °C and not above 10 µM.
